# Laboratory results from US9738634B2, “Heterocyclic amide compound and herbicide” (SYNGENTA PARTICIPATIONS AG, priority 2013, dated 2017).
# Experiments:
# Assay type in all cases: in vivo
# barnyard grass [1] = test: Test Example 1: weedkilling efficacy, preemergent weed treatment in the submerged state; A: barnyard grass
# In short: (§1)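 Alluvial soil in Wagner pots flooded to 4 cm; barnyard grass, bulrush and oval-leafed pondweed seeds sown, then 2.5-leaf rice seedlings transplanted. Same day, emulsified compound diluted in water to set g/ha dosages and applied to water surface; greenhouse 25–30 °C, effect scored by criteria after 3 weeks.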
# bulrush [2] = test: Test Example 1: weedkilling efficacy, preemergent weed treatment in the submerged state; B: bulrush
# In short: as §1
# oval-leafed pondweed [3] = test: Test Example 1: weedkilling efficacy, preemergent weed treatment in the submerged state; C: oval-leafed pondweed
# In short: as §1
# transplanted rice = test: Test Example 1: preemergent weed treatment in the submerged state, effect on crop; a: transplanted rice
# In short: as §1
# barnyard grass [4] = test: Test Example 2: weedkilling efficacy, growth period weed treatment in the submerged state; A: barnyard grass
# In short: (§2)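 First, alluvial soil in pots is flooded to 4 cm and mixed seed is sown. Next, plants grow in a greenhouse at 25 to 30° C until the 1-2 leaf stage. Then diluted emulsion is applied onto the water surface at the given g/ha rate, and injury is assessed after 3 weeks.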
# bulrush [5] = test: Test Example 2: weedkilling efficacy, growth period weed treatment in the submerged state; B: bulrush
# In short: as §2
# oval-leafed pondweed [6] = test: Test Example 2: weedkilling efficacy, growth period weed treatment in the submerged state; C: oval-leafed pondweed
# In short: as §2
# crabgrass = test: Test Example 3: weedkilling efficacy through soil treatment; D: crabgrass; conditions: soil treatment
# In short: (§3)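 Crop and weed responses were judged three weeks after a uniform surface spray of the water-diluted emulsion at the given g/ha rate. Seeds sat beneath about 1.5 cm of sterilized diluvial soil, and boxes stood in a greenhouse at 25 to 30° C.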
# green foxtail = test: Test Example 3: weedkilling efficacy through soil treatment; E: green foxtail; conditions: soil treatment
# In short: as §3
# barnyard grass [7] = test: Test Example 3: weedkilling efficacy through soil treatment; F: barnyard grass; conditions: soil treatment
# In short: as §3
# wild oat = test: Test Example 3: weedkilling efficacy through soil treatment; G: wild oat; conditions: soil treatment
# In short: as §3
# black-grass = test: Test Example 3: weedkilling efficacy through soil treatment; H: black-grass; conditions: soil treatment
# In short: as §3
# Italian ryegrass = test: Test Example 3: weedkilling efficacy through soil treatment; I: Italian ryegrass; conditions: soil treatment
# In short: as §3
# common wind-grass = test: Test Example 3: weedkilling efficacy through soil treatment; J: common wind-grass; conditions: soil treatment
# In short: as §3
# Indian mallow = test: Test Example 3: weedkilling efficacy through soil treatment; K: Indian mallow; conditions: soil treatment
# In short: as §3
# redroot pigweed = test: Test Example 3: weedkilling efficacy through soil treatment; L: redroot pigweed; conditions: soil treatment
# In short: as §3
# chickweed = test: Test Example 3: weedkilling efficacy through soil treatment; N: chickweed; conditions: soil treatment
# In short: as §3
# catchweed = test: Test Example 3: weedkilling efficacy through soil treatment; O: catchweed; conditions: soil treatment
# In short: as §3
# birds-eye speedwell = test: Test Example 3: weedkilling efficacy through soil treatment; p: birds-eye speedwell; conditions: soil treatment, treatment dosage 315 g/ha
# In short: as §3
# directly sown rice = test: Test Example 3: soil treatment, effect on crop; b: directly sown rice; conditions: soil treatment
# In short: as §3
# corn = test: Test Example 3: soil treatment, effect on crop; c: corn; conditions: soil treatment
# In short: as §3
# soybean = test: Test Example 3: soil treatment, effect on crop; d: soybean; conditions: soil treatment
# In short: as §3
# wheat = test: Test Example 3: soil treatment, effect on crop; e: wheat; conditions: soil treatment
# In short: as §3
# beet = test: Test Example 3: soil treatment, effect on crop; f: beet; conditions: soil treatment
# In short: as §3
# rapeseed = test: Test Example 3: soil treatment, effect on crop; g: rapeseed; conditions: soil treatment
# In short: as §3
# fig-leafed goosefoot = test: Test Example 3: weedkilling efficacy through soil treatment; M: fig-leafed goosefoot; conditions: soil treatment, treatment dosage 320 g/ha
# In short: as §3
smiles,measurement,setting,value
CC(C)(C(=O)Nc1cc(F)cc(F)n1)N1COCN(c2ccccc2)C1=O [A-2-13],"A: barnyard grass, weed kill grade",barnyard grass [1]; treatment dosage 252 g/ha,"5 (weed kill ratio 90% or more, (practically complete withering))"
same,"B: bulrush, weed kill grade",bulrush [2]; treatment dosage 252 g/ha,"5 (weed kill ratio 90% or more, (practically complete withering))"
same,"C: oval-leafed pondweed, weed kill grade",oval-leafed pondweed [3]; treatment dosage 252 g/ha,"5 (weed kill ratio 90% or more, (practically complete withering))"
same,"a: transplanted rice, effect on crop grade",transplanted rice; treatment dosage 252 g/ha,"3 (weed kill ratio 40% or more, less than 70%)"
same,A (barnyard grass) weedkilling efficacy grade,barnyard grass [4]; treatment dosage 252 g/ha,"5 (weed kill ratio 90% or more, (practically complete withering))"
same,B (bulrush) weedkilling efficacy grade,bulrush [5]; treatment dosage 252 g/ha,"5 (weed kill ratio 90% or more, (practically complete withering))"
same,C (oval-leafed pondweed) weedkilling efficacy grade,oval-leafed pondweed [6]; treatment dosage 252 g/ha,"5 (weed kill ratio 90% or more, (practically complete withering))"
same,"D: crabgrass, weedkilling efficacy grade",crabgrass; treatment dosage 315 g/ha,"5 (weed kill ratio 90% or more, (practically complete withering))"
same,"E: green foxtail, weedkilling efficacy grade",green foxtail; treatment dosage 315 g/ha,"5 (weed kill ratio 90% or more, (practically complete withering))"
same,"F: barnyard grass, weedkilling efficacy grade",barnyard grass [7]; treatment dosage 315 g/ha,"5 (weed kill ratio 90% or more, (practically complete withering))"
same,"G: wild oat, weedkilling efficacy grade",wild oat; treatment dosage 315 g/ha,"5 (weed kill ratio 90% or more, (practically complete withering))"
same,"H: black-grass, weedkilling efficacy grade",black-grass; treatment dosage 315 g/ha,"5 (weed kill ratio 90% or more, (practically complete withering))"
same,"I: Italian ryegrass, weedkilling efficacy grade",Italian ryegrass; treatment dosage 315 g/ha,"5 (weed kill ratio 90% or more, (practically complete withering))"
same,"J: common wind-grass, weedkilling efficacy grade",common wind-grass; treatment dosage 315 g/ha,"5 (weed kill ratio 90% or more, (practically complete withering))"
same,"K: Indian mallow, weedkilling efficacy grade",Indian mallow; treatment dosage 315 g/ha,"5 (weed kill ratio 90% or more, (practically complete withering))"
same,"L: redroot pigweed, weedkilling efficacy grade",redroot pigweed; treatment dosage 315 g/ha,"5 (weed kill ratio 90% or more, (practically complete withering))"
same,"N: chickweed, weedkilling efficacy grade",chickweed; treatment dosage 315 g/ha,"5 (weed kill ratio 90% or more, (practically complete withering))"
same,"O: catchweed, weedkilling efficacy grade",catchweed; treatment dosage 315 g/ha,"5 (weed kill ratio 90% or more, (practically complete withering))"
same,"P: birds-eye speedwell, weedkilling efficacy grade",birds-eye speedwell,"5 (weed kill ratio 90% or more, (practically complete withering))"
same,"b: directly sown rice, effect on crop grade",directly sown rice; treatment dosage 315 g/ha,"5 (weed kill ratio 90% or more, (practically complete withering))"
same,"c: corn, effect on crop grade",corn; treatment dosage 315 g/ha,"4 (weed kill ratio 70% or more, less than 90%)"
same,"d: soybean, effect on crop grade",soybean; treatment dosage 315 g/ha,"3 (weed kill ratio 40% or more, less than 70%)"
same,"e: wheat, effect on crop grade",wheat; treatment dosage 315 g/ha,"5 (weed kill ratio 90% or more, (practically complete withering))"
same,"f: beet, effect on crop grade",beet; treatment dosage 315 g/ha,"4 (weed kill ratio 70% or more, less than 90%)"
same,"g: rapeseed, effect on crop grade",rapeseed; treatment dosage 315 g/ha,"5 (weed kill ratio 90% or more, (practically complete withering))"
COc1cc(Cl)nc(NC(=O)C(C)(C)N2COCN(c3ccccc3)C2=O)c1 [A-2-33],"A: barnyard grass, weed kill grade",barnyard grass [1]; treatment dosage 315 g/ha,"5 (weed kill ratio 90% or more, (practically complete withering))"
same,"B: bulrush, weed kill grade",bulrush [2]; treatment dosage 315 g/ha,"5 (weed kill ratio 90% or more, (practically complete withering))"
same,"C: oval-leafed pondweed, weed kill grade",oval-leafed pondweed [3]; treatment dosage 315 g/ha,"5 (weed kill ratio 90% or more, (practically complete withering))"
same,"a: transplanted rice, effect on crop grade",transplanted rice; treatment dosage 315 g/ha,"4 (weed kill ratio 70% or more, less than 90%)"
same,A (barnyard grass) weedkilling efficacy grade,barnyard grass [4]; treatment dosage 315 g/ha,"5 (weed kill ratio 90% or more, (practically complete withering))"
same,B (bulrush) weedkilling efficacy grade,bulrush [5]; treatment dosage 315 g/ha,"5 (weed kill ratio 90% or more, (practically complete withering))"
same,C (oval-leafed pondweed) weedkilling efficacy grade,oval-leafed pondweed [6]; treatment dosage 315 g/ha,"5 (weed kill ratio 90% or more, (practically complete withering))"
same,"D: crabgrass, weedkilling efficacy grade",crabgrass; treatment dosage 315 g/ha,"5 (weed kill ratio 90% or more, (practically complete withering))"
same,"E: green foxtail, weedkilling efficacy grade",green foxtail; treatment dosage 315 g/ha,"5 (weed kill ratio 90% or more, (practically complete withering))"
same,"F: barnyard grass, weedkilling efficacy grade",barnyard grass [7]; treatment dosage 315 g/ha,"4 (weed kill ratio 70% or more, less than 90%)"
same,"G: wild oat, weedkilling efficacy grade",wild oat; treatment dosage 315 g/ha,"4 (weed kill ratio 70% or more, less than 90%)"
same,"H: black-grass, weedkilling efficacy grade",black-grass; treatment dosage 315 g/ha,"5 (weed kill ratio 90% or more, (practically complete withering))"
same,"I: Italian ryegrass, weedkilling efficacy grade",Italian ryegrass; treatment dosage 315 g/ha,"5 (weed kill ratio 90% or more, (practically complete withering))"
same,"J: common wind-grass, weedkilling efficacy grade",common wind-grass; treatment dosage 315 g/ha,"5 (weed kill ratio 90% or more, (practically complete withering))"
same,"K: Indian mallow, weedkilling efficacy grade",Indian mallow; treatment dosage 315 g/ha,0 (weed kill ratio 5% or less (practically no effect))
same,"L: redroot pigweed, weedkilling efficacy grade",redroot pigweed; treatment dosage 315 g/ha,"2 (weed kill ratio 20% or more, less than 40%)"
same,"N: chickweed, weedkilling efficacy grade",chickweed; treatment dosage 315 g/ha,"4 (weed kill ratio 70% or more, less than 90%)"
same,"O: catchweed, weedkilling efficacy grade",catchweed; treatment dosage 315 g/ha,"5 (weed kill ratio 90% or more, (practically complete withering))"
same,"P: birds-eye speedwell, weedkilling efficacy grade",birds-eye speedwell,"5 (weed kill ratio 90% or more, (practically complete withering))"
same,"b: directly sown rice, effect on crop grade",directly sown rice; treatment dosage 315 g/ha,"3 (weed kill ratio 40% or more, less than 70%)"
same,"c: corn, effect on crop grade",corn; treatment dosage 315 g/ha,0 (weed kill ratio 5% or less (practically no effect))
same,"d: soybean, effect on crop grade",soybean; treatment dosage 315 g/ha,0 (weed kill ratio 5% or less (practically no effect))
same,"e: wheat, effect on crop grade",wheat; treatment dosage 315 g/ha,0 (weed kill ratio 5% or less (practically no effect))
same,"f: beet, effect on crop grade",beet; treatment dosage 315 g/ha,"1 (weed kill ratio 5% or more, less than 20%)"
same,"g: rapeseed, effect on crop grade",rapeseed; treatment dosage 315 g/ha,"3 (weed kill ratio 40% or more, less than 70%)"
CC(C)(C(=O)Nc1cc(Cl)cc(Oc2ccccc2)n1)N1COCN(c2ccccc2)C1=O [A-2-35],"A: barnyard grass, weed kill grade",barnyard grass [1]; treatment dosage 320 g/ha,"5 (weed kill ratio 90% or more, (practically complete withering))"
same,"B: bulrush, weed kill grade",bulrush [2]; treatment dosage 320 g/ha,"5 (weed kill ratio 90% or more, (practically complete withering))"
same,"C: oval-leafed pondweed, weed kill grade",oval-leafed pondweed [3]; treatment dosage 320 g/ha,"5 (weed kill ratio 90% or more, (practically complete withering))"
same,"a: transplanted rice, effect on crop grade",transplanted rice; treatment dosage 320 g/ha,"1 (weed kill ratio 5% or more, less than 20%)"
same,A (barnyard grass) weedkilling efficacy grade,barnyard grass [4]; treatment dosage 320 g/ha,"4 (weed kill ratio 70% or more, less than 90%)"
same,B (bulrush) weedkilling efficacy grade,bulrush [5]; treatment dosage 320 g/ha,"4 (weed kill ratio 70% or more, less than 90%)"
same,C (oval-leafed pondweed) weedkilling efficacy grade,oval-leafed pondweed [6]; treatment dosage 320 g/ha,"4 (weed kill ratio 70% or more, less than 90%)"
same,"D: crabgrass, weedkilling efficacy grade",crabgrass; treatment dosage 320 g/ha,"4 (weed kill ratio 70% or more, less than 90%)"
same,"E: green foxtail, weedkilling efficacy grade",green foxtail; treatment dosage 320 g/ha,"3 (weed kill ratio 40% or more, less than 70%)"
same,"F: barnyard grass, weedkilling efficacy grade",barnyard grass [7]; treatment dosage 320 g/ha,"3 (weed kill ratio 40% or more, less than 70%)"
same,"G: wild oat, weedkilling efficacy grade",wild oat; treatment dosage 320 g/ha,0 (weed kill ratio 5% or less (practically no effect))
same,"H: black-grass, weedkilling efficacy grade",black-grass; treatment dosage 320 g/ha,"3 (weed kill ratio 40% or more, less than 70%)"
same,"I: Italian ryegrass, weedkilling efficacy grade",Italian ryegrass; treatment dosage 320 g/ha,"3 (weed kill ratio 40% or more, less than 70%)"
same,"J: common wind-grass, weedkilling efficacy grade",common wind-grass; treatment dosage 320 g/ha,"4 (weed kill ratio 70% or more, less than 90%)"
same,"K: Indian mallow, weedkilling efficacy grade",Indian mallow; treatment dosage 320 g/ha,0 (weed kill ratio 5% or less (practically no effect))
same,"L: redroot pigweed, weedkilling efficacy grade",redroot pigweed; treatment dosage 320 g/ha,0 (weed kill ratio 5% or less (practically no effect))
same,"M: fig-leafed goosefoot, weedkilling efficacy grade",fig-leafed goosefoot,0 (weed kill ratio 5% or less (practically no effect))
same,"N: chickweed, weedkilling efficacy grade",chickweed; treatment dosage 320 g/ha,0 (weed kill ratio 5% or less (practically no effect))
same,"O: catchweed, weedkilling efficacy grade",catchweed; treatment dosage 320 g/ha,0 (weed kill ratio 5% or less (practically no effect))
same,"b: directly sown rice, effect on crop grade",directly sown rice; treatment dosage 320 g/ha,0 (weed kill ratio 5% or less (practically no effect))
same,"c: corn, effect on crop grade",corn; treatment dosage 320 g/ha,0 (weed kill ratio 5% or less (practically no effect))
same,"d: soybean, effect on crop grade",soybean; treatment dosage 320 g/ha,0 (weed kill ratio 5% or less (practically no effect))
same,"e: wheat, effect on crop grade",wheat; treatment dosage 320 g/ha,0 (weed kill ratio 5% or less (practically no effect))
same,"f: beet, effect on crop grade",beet; treatment dosage 320 g/ha,0 (weed kill ratio 5% or less (practically no effect))
same,"g: rapeseed, effect on crop grade",rapeseed; treatment dosage 320 g/ha,"1 (weed kill ratio 5% or more, less than 20%)"
